Laboratory results taken from patent US20030171579A1, “Urethane derivatives” (priority 2003, published 2003).

Tests used:
factor Xa, human = factor Xa, human (Homo sapiens, UniProt P00742); experiment: Inhibition of factor Xa ("Affinity to receptors"); assay type: biochemical
From the text: The inhibition of factor Xa by the compounds according to the invention and the measurement of the anticoagulant and antithrombotic activity can be determined by conventional in-vitro or in-vivo methods. A suitable method is described, for example, by J. Hauptmann et al. in Thrombosis and Haemostasis 1990, 63, 220-223.
The inhibition of factor Xa can be measured, for example, by the method of T. Hara et al. in Thromb. Haemostas. 1994, 71, 314-319.

TF/VIIa = TF/VIIa (Homo sapiens, UniProt P08709); experiment: Inhibition of TF/VIIa ("Affinity to receptors"); assay type: biochemical
From the text: The inhibition of factor VIIa by the compounds according to the invention and the measurement of the anticoagulant and antithrombotic activity can be determined by conventional in-vitro or in-vivo methods. A conventional method for the measurement of the inhibition of factor VIIa is described, for example, by H. F. Ronning et al. in Thrombosis Research 1996, 84, 73-81.

TF/VIIa, sequence (P08709 213-466 limits assumed): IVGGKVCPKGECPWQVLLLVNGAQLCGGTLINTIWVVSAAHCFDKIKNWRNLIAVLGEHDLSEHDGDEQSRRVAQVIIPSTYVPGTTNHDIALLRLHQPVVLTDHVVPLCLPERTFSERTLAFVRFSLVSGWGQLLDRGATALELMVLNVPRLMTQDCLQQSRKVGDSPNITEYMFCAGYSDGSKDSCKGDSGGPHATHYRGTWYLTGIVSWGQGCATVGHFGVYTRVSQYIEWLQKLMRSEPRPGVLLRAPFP
TF/VIIa, sequence (P08709 61-212 limits assumed): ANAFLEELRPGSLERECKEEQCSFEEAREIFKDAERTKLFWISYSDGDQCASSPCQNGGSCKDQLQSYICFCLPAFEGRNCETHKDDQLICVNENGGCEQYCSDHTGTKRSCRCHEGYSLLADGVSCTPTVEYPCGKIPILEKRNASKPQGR
TF/VIIa, sequence (P13726 33-295 partner): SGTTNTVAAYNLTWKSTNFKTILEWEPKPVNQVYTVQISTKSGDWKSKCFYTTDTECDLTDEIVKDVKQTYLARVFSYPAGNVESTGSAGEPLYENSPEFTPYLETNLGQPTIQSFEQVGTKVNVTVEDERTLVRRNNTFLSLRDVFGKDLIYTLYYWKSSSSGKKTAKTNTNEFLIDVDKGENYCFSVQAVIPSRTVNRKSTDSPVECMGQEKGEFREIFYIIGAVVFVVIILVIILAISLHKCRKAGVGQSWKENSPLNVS
factor Xa, human, sequence (P00742 235-488 limits assumed): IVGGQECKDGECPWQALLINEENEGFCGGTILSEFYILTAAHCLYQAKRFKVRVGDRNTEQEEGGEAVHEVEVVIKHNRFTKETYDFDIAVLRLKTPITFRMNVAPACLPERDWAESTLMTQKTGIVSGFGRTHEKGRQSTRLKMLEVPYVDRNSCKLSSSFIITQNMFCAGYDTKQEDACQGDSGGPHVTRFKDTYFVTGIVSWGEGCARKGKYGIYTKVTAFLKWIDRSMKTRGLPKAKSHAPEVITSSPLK
factor Xa, human, sequence (P00742 41-179 limits assumed): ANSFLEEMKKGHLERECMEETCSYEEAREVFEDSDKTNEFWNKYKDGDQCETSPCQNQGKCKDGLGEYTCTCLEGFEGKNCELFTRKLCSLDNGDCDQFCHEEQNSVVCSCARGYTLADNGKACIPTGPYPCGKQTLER

Compound | IC50 (factor Xa, human) | IC50 (TF/VIIa) | melting point
N=C(N)c1cccc(CN(C(=O)Nc2ccc(-c3ccccc3S(N)(=O)=O)cc2)c2ccccc2)c1 [Example 5.3, 1-(3-amidinobenzyl)-3-(2′-sulfamoylbiphenyl-4-yl)-1-phenylurea] | 330 nM | 100 nM | 201 to 202 °C
CS(=O)(=O)c1ccccc1-c1ccc(NC(=O)N(Cc2ccccc2)Cc2cccc(C(=N)N)c2)cc1 [1-(3-amidinobenzyl)-3-(2′-methylsulfonylbiphenyl-4-yl)-1-benzylurea] | 80 nM | 26 nM | –
CCCN(Cc1cccc(C(=N)N)c1)C(=O)Nc1ccc(-c2ccccc2S(C)(=O)=O)cc1 [Example 4.3, 1-(3-amidino-benzyl)-3-(2′-methylsulfonylbiphenyl-4-yl)-1-propylurea] | 100 nM | 30 nM | –

The remaining compounds from weak to strong by IC50 (factor Xa, human), led by results:

IC50 (factor Xa, human) | IC50 (TF/VIIa) | melting point | Compound
300 nM | 70 nM | – | CS(=O)(=O)c1ccccc1-c1ccc(NC(=O)N(Cc2cccc(C(=N)N)c2)c2ccccc2)cc1 [Example 6.3, 1-(3-amidinobenzyl)-3-(2′-methylsulfonylbiphenyl-4-yl)-1-phenylurea]
140 nM | 80 nM | 166 to 167 °C | CCCN(Cc1cccc(C(=N)N)c1)C(=O)Nc1ccc(-c2ccccc2S(N)(=O)=O)cc1 [Example 3.3, 1-(3-amidino-benzyl)-3-(2′-sulfamoylbiphenyl-4-yl)-1-propylurea]
